Source: article PMC8047011, “Enantiomers of 2-methylglutamate and 2-methylglutamine selectively impact mouse brain metabolism and behavior” (Scientific Reports, 2021)

How the values were obtained:
[1] = system: mouse cerebral synaptosomes; assay: Synaptosomal neurotransmitter uptake assay; type: cell-based; conditions: 10 μM substrate; for Transport into synaptosomes: 37 °C
Procedure: Mouse cerebral synaptosomes were prepared according to published methods. See Supplementary Methods for details. 500 μL aliquots of the synaptosome suspension were transferred to pre-chilled microcentrifuge tubes for experiments. Centrifugations were at 8000g for 4 min at 4 °C, unless stated otherwise, and all samples were stored at − 80 °C.
To each tube, 5 μL of a test compound solution (final concentration 10 μM) in Buffer KRP or Buffer KRP alone were added. Samples were incubated at 4 °C or 37 °C for 1, 10, or 30 min and then immediately centrifuged and washed twice by resuspension–centrifugation with Buffer S (0.5 mL). Resulting pellets were resuspended in 170 μL of 0.1% aqueous formic acid and mixed with 330 μL of ACN.
Buffer S (4 mL, × 1) and Buffer KRP (2 mL, × 3). The resulting pellet was resuspended in 3 mL of Buffer KRP and filtered on Ultrafree-CL 5 μm PVDF centrifugal device (1,000g for 4 min at 4 °C). The filtrate was diluted to 15 mL with ice cold Buffer KRP and kept on ice. The synaptosome preparation was used immediately in the following experiments.
Synaptosomal neurotransmitter uptake assay
96-well plate experiments: 250 μL aliquots of the synaptosome suspension were transferred to two 0.8-mL 96 well plates, one on ice (0 °C samples only) and one in a thermoblock (37 °C samples only), and equilibrated for 10 min. 5 μL of a test compound (0.5 mM; final concentration: 10 μM) in Buffer KRP or Buffer KRP blank were added 10, 20 or 30 min before the incubation termination. “0 min” samples were prepared by placing the test compound solution in a separate pre-chilled V-shape bottom 2-mL 96 well plate; at the end of incubation 200 μL aliquots of all samples were transferred to the 2-mL 96 well plate and centrifuged (2,500g for 15 min at 4 °C) immediately. The resulting pellets were rinsed with Buffer KRP, followed by centrifugation, twice, then resuspended in 200 μL of 60% ACN containing 2.5 μM Glu-d5 as internal standard and stored at –80 °C until analysis. […]

GABAA α3β2γ2 = molecular target: T1, GABAA α3β2γ2 (Homo sapiens, UniProt P34903+P47870); assay: FLIPR functional receptor assay, GABAA α3β2γ2; type: cell-based; conditions: agonist mode; top test concentration 1 mM
T1 construct: host or cells: HEK 293
T1 sequence (P34903 29-492): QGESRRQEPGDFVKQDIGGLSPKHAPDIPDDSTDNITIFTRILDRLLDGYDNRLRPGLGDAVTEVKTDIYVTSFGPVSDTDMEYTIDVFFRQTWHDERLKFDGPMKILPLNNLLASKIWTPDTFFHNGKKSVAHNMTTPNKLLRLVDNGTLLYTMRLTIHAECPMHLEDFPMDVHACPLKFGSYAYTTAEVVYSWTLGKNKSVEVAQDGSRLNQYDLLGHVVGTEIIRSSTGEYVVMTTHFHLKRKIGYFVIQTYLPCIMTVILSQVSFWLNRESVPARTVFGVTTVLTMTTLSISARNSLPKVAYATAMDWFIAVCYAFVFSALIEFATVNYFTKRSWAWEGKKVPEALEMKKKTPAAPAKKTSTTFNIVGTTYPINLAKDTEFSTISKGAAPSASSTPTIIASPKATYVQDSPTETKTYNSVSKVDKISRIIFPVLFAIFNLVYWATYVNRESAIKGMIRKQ
T1 sequence (P47870 25-512 limits assumed): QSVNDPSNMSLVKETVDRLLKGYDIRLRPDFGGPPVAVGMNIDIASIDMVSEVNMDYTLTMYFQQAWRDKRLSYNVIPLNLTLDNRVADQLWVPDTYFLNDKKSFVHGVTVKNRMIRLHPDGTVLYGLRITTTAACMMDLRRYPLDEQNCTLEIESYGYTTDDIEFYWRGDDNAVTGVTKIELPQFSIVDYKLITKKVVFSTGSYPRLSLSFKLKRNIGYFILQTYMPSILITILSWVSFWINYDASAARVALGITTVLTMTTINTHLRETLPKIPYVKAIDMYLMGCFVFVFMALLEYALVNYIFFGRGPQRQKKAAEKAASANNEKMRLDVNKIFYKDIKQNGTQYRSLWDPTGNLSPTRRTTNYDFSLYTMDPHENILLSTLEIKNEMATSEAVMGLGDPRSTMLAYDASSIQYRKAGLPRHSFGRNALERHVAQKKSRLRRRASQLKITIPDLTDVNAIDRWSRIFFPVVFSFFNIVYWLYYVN
T1 sequence (P18507 40-475 partner): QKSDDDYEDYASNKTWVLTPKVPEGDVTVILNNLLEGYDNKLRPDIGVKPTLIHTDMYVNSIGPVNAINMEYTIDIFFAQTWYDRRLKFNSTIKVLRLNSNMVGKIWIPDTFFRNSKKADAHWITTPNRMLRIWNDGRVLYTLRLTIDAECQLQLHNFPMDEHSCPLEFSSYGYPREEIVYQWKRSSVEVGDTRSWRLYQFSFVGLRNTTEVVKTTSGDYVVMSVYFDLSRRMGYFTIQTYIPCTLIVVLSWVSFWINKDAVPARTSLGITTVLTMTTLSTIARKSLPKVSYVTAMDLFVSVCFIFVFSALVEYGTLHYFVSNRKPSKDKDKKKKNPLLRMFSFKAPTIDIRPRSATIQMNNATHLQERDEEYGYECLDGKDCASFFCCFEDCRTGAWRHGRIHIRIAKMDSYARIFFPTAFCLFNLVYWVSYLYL
Procedure: Receptor functional & binding assays
Functional assays of all GABAA, NMDA (GluN2A–GluN2D) and AMPA (GluA2) receptor subunits were performed by SB Drug Discovery as a part of their CNS discovery panel using FLIPR technology. Briefly, receptor-expressing HEK 293 cell lines were incubated in a red membrane potential dye in HEPES:HBSS pH 7.4 buffer and the fluorescence (λex: 488, λex: 510–570) was monitored over time as the test compounds and/or reference compounds were added to the solution. In agonist assay, only test compounds were added. In positive allosteric modulator assay, cells were preincubated with test compounds and then low concentration (approximately EC20) of an appropriate agonist was added. In antagonist assay, cells were preincubated with test compounds and then high concentration (approximately EC80) of an appropriate agonist was added. For GABAA assays, GABA was used as the agonist, picrotoxin was used as the reference antagonist and allopregnanolone was used as the reference positive allosteric modulator (PAM). For NMDA assays, a mixture of glutamate, glycine and CaCl2 was used as the agonist, MK801 was the reference antagonist and pregnenolone sulfate or GNE 9278 were used as reference PAMs. […] All compounds were tested at 7 concentration points in triplicate and EC50/IC50 was determined where applicable. […]

GABAB (B1a/B2) = molecular target: T2, GABAB (B1a/B2) (Homo sapiens, UniProt Q9UBS5); assay: GABAB (B1a/B2) binding assay; conditions: triplicate, read-out: % of radioligand binding inhibition, GABAB (B1a/B2)
T2 construct: purchased SB Drug Discovery (CNS discovery panel, FLIPR); Eurofins Discovery (Cerep)
T2 sequence (Q9UBS5 15-961 limits assumed): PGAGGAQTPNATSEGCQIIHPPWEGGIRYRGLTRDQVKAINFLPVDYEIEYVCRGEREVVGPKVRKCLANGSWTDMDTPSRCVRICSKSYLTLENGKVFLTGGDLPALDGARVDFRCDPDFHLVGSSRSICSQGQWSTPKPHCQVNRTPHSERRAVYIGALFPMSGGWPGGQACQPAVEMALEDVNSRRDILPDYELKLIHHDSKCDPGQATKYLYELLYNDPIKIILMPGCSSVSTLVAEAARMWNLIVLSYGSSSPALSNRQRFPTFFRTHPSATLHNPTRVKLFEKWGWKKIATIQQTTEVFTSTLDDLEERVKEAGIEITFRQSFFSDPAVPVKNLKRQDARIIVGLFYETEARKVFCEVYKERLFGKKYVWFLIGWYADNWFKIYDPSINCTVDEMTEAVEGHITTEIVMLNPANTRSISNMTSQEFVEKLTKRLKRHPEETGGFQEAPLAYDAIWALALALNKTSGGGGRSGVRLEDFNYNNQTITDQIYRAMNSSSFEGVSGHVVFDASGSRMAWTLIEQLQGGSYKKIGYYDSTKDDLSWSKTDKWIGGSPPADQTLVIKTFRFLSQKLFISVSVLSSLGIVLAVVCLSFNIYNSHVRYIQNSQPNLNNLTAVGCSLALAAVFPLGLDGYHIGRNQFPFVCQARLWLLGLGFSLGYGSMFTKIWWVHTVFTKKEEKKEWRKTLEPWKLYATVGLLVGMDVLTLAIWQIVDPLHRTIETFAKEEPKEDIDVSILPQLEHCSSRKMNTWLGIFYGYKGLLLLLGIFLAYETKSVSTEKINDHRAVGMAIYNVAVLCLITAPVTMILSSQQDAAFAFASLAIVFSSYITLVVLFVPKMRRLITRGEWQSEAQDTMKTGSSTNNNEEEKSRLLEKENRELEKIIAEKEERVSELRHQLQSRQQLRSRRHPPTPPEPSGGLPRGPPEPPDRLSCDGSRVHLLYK
T2 sequence (O75899 42-941 partner): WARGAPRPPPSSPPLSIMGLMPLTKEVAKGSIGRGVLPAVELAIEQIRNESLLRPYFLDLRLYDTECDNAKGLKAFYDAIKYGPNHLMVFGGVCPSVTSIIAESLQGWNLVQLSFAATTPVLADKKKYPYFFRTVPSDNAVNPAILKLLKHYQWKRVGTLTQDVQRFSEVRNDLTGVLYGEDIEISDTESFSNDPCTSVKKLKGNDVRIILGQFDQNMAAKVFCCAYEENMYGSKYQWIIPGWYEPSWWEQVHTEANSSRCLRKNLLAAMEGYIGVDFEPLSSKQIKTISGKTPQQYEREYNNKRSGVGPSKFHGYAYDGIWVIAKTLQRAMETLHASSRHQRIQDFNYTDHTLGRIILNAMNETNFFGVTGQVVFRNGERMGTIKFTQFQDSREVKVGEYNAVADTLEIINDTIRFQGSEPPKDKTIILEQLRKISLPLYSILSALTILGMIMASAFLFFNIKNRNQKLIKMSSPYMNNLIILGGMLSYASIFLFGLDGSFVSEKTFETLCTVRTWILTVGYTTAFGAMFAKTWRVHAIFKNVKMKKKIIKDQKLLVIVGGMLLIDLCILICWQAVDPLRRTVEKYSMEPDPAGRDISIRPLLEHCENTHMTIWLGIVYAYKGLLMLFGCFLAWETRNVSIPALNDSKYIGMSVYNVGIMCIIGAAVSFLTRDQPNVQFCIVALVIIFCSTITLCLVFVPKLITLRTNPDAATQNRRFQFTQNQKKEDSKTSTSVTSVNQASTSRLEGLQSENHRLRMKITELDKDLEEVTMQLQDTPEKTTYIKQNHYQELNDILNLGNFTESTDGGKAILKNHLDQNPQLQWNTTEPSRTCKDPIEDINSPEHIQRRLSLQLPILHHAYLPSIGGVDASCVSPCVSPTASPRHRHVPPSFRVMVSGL
Procedure: mGluR1, mGluR2, mGluR5 and GABAB binding assays were performed by Eurofins Discovery. […]
mGluR5 and GABAB binding assays were performed using recombinant CHO-K1 cells and
[3H]CGP-54626 and [3H]quisqalic acid, respectively. All compounds were tested at a single
concentration of 100 uM in triplicate. […]

kainate nonspecific = assay: Nonspecific kainate binding assay; conditions: 100 μM, triplicate; rat
Procedure: (§1) Nonspecific AMPA, kainate and NMDA binding assays were performed by Eurofins Discovery
(§2) (Cerep) using rat cerebral cortex membranes and radiolabeled [3H]AMPA, [3H]kainic acid and
(§3) [3H]CGP 39653, respectively. […]

AMPA nonspecific = assay: Nonspecific AMPA binding assay; conditions: 100 μM, triplicate; rat
Procedure: as §1, §2, §3

| SMILES | Transport into synaptosomes [1] | EC50 (GABAA α3β2γ2) | inhibition at 100 µM (GABAB (B1a/B2)) | % of radioligand binding inhibition, kainate nonspec (kainate nonspecific) | % of radioligand binding inhibition, AMPA nonspec (AMPA nonspecific) | Synaptosomal uptake rate relative to the R enantiomer [1] |
| --- | --- | --- | --- | --- | --- | --- |
| C[C@@](N)(CCC(=O)O)C(=O)O [(R)-2MeGlu, (R)-2-methylglutamic acid] | transported into synaptosomes | > 1000 µM | 18% | 18% | 15% |  |
| C[C@](N)(CCC(=O)O)C(=O)O [(S)-2MeGlu, (S)-2-methylglutamic acid] | transported into synaptosomes | 961 µM | 6% | 20% | 12% | approximately threefold faster |
